The test system of data set [1] is P388. The data set can be described thus: Antitumor activity against intraperitoneally implanted P388 leukemia cells in mice expressed as […] effective dose at an optimal dose of 3.2 mg/kg. In kind it is functional. To be noted: Mus musculus, P388, ip, route intraperitoneal, read-out: MED.
In data set [2] the test system is P388. The data set can be described thus: Antitumor activity against intraperitoneally implanted P388 leukemia cells in mice expressed as ratio of median survival time for treated group to that of control group at an optimal dose of 3.2 mg/kg. To be noted: route intraperitoneal. The class given is functional, Mus musculus.
Data set [3] can be described thus: Partition coefficient (logP). The class given is physicochemical. To be noted: octanol/water.
Data set [4] has as its system P388. Kind of data set: Antitumor activity against intraperitoneally implanted P388 leukemia cells in mice at an optimal dose of 12.8 mg/kg expressed as […] effective dose. In kind it is functional. To be noted: Mus musculus, P388, ip, route intraperitoneal, read-out: MED.
For data set [5], the system named is P388. The data set can be described thus: Antitumor activity against intraperitoneally implanted P388 leukemia cells in mice expressed as ratio of median survival time for treated group to that of control group at an optimal dose of 12.8 mg/kg. In kind it is functional, Mus musculus. To be noted: route intraperitoneal.

The values below come from ChEMBL document CHEMBL1123664, “Preparation and antitumor activity of new mitomycin A analogues” (J Med Chem, 1987).

“And” between values parts separate entries of the source, which are not always exact repeats. Equal values may be shown once.

A word on the T/C: it is the ratio of treated to control. The term logP denotes the decadic logarithm of the partition coefficient of the neutral form, usually between octanol and water. A high value points to a more lipophilic compound. On to `CO[C@@]12C(COC(N)=O)C3=C(C(=O)C(C)=C(OCc4ccccc4)C3=O)N1CC1NC12` (stereo not given in full), for which the minimal effective dose at 3.2 mg/kg in the data set with P388 [1] is under 0.2 mg/kg. In addition, the T/C with P388 [2] amounted to 167%. The molecule further came in with a log partition coefficient (logP) in data set [3] of 2.22.

Turning to `CO[C@@]12C(COC(N)=O)C3=C(C(=O)C(C)=C(OCC(O)CO)C3=O)N1CC1NC12` (stereo not given in full), the minimal effective dose at 12.8 mg/kg in the data set with P388 [4] is 0.2 mg/kg. Moreover, the T/C with P388 [5] is 225% and 205%.
